Results published in ChEMBL document CHEMBL3822420, “New peptide deformylase inhibitors design, synthesis and pharmacokinetic assessment” (Bioorg Med Chem Lett, 2016).
In brackets after ≈: the same amount, converted by molar mass.

Tests used:
[1] = AUC (0 to t) in Sprague-Dawley rat at 2 mg/kg, iv; format: ADME, organism-based; conditions: Sprague-Dawley, in vivo
[2] = Tmax in Sprague-Dawley rat at 2 mg/kg, iv; format: ADME, organism-based; conditions: in vivo
[3] = Tmax in Sprague-Dawley rat at 10 mg/kg, po; format: ADME, organism-based; conditions: in vivo
[4] = Cmax in Sprague-Dawley rat at 2 mg/kg, iv; format: ADME, organism-based; parameters: dose 2 mg/kg, route intravenous; conditions: in vivo
[5] = Cmax in Sprague-Dawley rat at 10 mg/kg, po; format: ADME, organism-based; parameters: dose 10 mg/kg, route oral; conditions: in vivo
Staphylococcus aureus [6] = assay: Antibacterial activity against methicillin-resistant Staphylococcus aureus 14-1; format: functional
Staphylococcus aureus [7] = assay: Antibacterial activity against methicillin-resistant Staphylococcus aureus 14-2; format: functional
Staphylococcus aureus [8] = assay: Antibacterial activity against methicillin-resistant Staphylococcus aureus 14-4; format: functional
Staphylococcus aureus [9] = assay: Antibacterial activity against methicillin-resistant Staphylococcus aureus 14-5; format: functional
Staphylococcus aureus [10] = assay: Antibacterial activity against methicillin-sensitive Staphylococcus aureus 14-1; format: functional
Staphylococcus aureus [11] = assay: Antibacterial activity against methicillin-sensitive Staphylococcus aureus 14-2; format: functional
Staphylococcus aureus [12] = assay: Antibacterial activity against methicillin-sensitive Staphylococcus aureus 14-3; format: functional
Staphylococcus aureus [13] = assay: Antibacterial activity against methicillin-sensitive Staphylococcus aureus 14-4; format: functional
[14] = system: Staphylococcus epidermidis; assay: Antibacterial activity against methicillin-resistant Staphylococcus epidermidis 14-1; format: functional
[15] = system: Staphylococcus epidermidis; assay: Antibacterial activity against methicillin-resistant Staphylococcus epidermidis 14-2; format: functional
[16] = system: Staphylococcus epidermidis; assay: Antibacterial activity against methicillin-resistant Staphylococcus epidermidis 14-3; format: functional
[17] = system: Staphylococcus epidermidis; assay: Antibacterial activity against methicillin-resistant Staphylococcus epidermidis 14-4; format: functional
[18] = system: Staphylococcus epidermidis; assay: Antibacterial activity against methicillin-sensitive Staphylococcus epidermidis 14-1; format: functional
[19] = system: Staphylococcus epidermidis; assay: Antibacterial activity against methicillin-sensitive Staphylococcus epidermidis 14-2; format: functional
[20] = system: Staphylococcus epidermidis; assay: Antibacterial activity against methicillin-sensitive Staphylococcus epidermidis 14-3; format: functional
Enterococcus faecalis [21] = assay: Antibacterial activity against Enterococcus faecalis 14-1; format: functional
Enterococcus faecalis [22] = assay: Antibacterial activity against Enterococcus faecalis 14-2; format: functional
Enterococcus faecalis [23] = assay: Antibacterial activity against Enterococcus faecalis 14-3; format: functional
Enterococcus faecalis [24] = assay: Antibacterial activity against Enterococcus faecalis 14-5; format: functional
Escherichia coli [25] = assay: Antibacterial activity against Escherichia coli 14-1; format: functional
Escherichia coli [26] = assay: Antibacterial activity against Escherichia coli 14-2; format: functional
Escherichia coli [27] = assay: Antibacterial activity against Escherichia coli 14-1 expressing extended-spectrum beta-lactamase; format: functional
Escherichia coli [28] = assay: Antibacterial activity against Escherichia coli 14-2 expressing extended-spectrum beta-lactamase; format: functional
[29] = AUC (0 to t) in Sprague-Dawley rat at 10 mg/kg, po; format: ADME, organism-based; conditions: in vivo
[30] = AUC (0 to infinity) in Sprague-Dawley rat at 2 mg/kg, iv; format: ADME, organism-based; parameters: dose 2 mg/kg, route intravenous, time infinity; conditions: Sprague-Dawley, in vivo
[31] = AUC (0 to infinity) in Sprague-Dawley rat at 10 mg/kg, po; format: ADME, organism-based; parameters: dose 10 mg/kg, time infinity, route oral; conditions: Sprague-Dawley, in vivo
[32] = Half life in Sprague-Dawley rat at 2 mg/kg, iv; format: ADME, organism-based; conditions: in vivo
[33] = Half life in Sprague-Dawley rat at 10 mg/kg, po; format: ADME, organism-based; conditions: Sprague-Dawley, in vivo
[34] = MRT (0 to t) in Sprague-Dawley rat at 2 mg/kg, iv; format: ADME, organism-based; conditions: in vivo
[35] = MRT (0 to t) in Sprague-Dawley rat at 10 mg/kg, po; format: ADME, organism-based; conditions: in vivo
[36] = Clearance in Sprague-Dawley rat at 2 mg/kg, iv; format: ADME, organism-based; conditions: in vivo
[37] = Clearance in Sprague-Dawley rat at 10 mg/kg, po; format: ADME, organism-based; conditions: Sprague-Dawley, in vivo
[38] = Volume of distribution at steady state in Sprague-Dawley rat at 2 mg/kg, iv; format: ADME, organism-based; conditions: in vivo, read-out: Vdss
Rattus norvegicus = assay: Volume of distribution at steady state in Sprague-Dawley rat at 10 mg/kg, po; format: ADME, organism-based; conditions: in vivo
[39] = Oral bioavailability in Sprague-Dawley rat at 10 mg/kg; format: ADME, organism-based; conditions: in vivo

Compound	AUC(0-t) [1] [ng·h/mL]	Tmax [2] [min]	Tmax [3] [h]	Cmax [4] [ng/mL]	Cmax [5] [ng/mL]	MIC (Staphylococcus aureus [6]) [µg/mL]	MIC (Staphylococcus aureus [7]) [µg/mL]	MIC (Staphylococcus aureus [8]) [µg/mL]	MIC (Staphylococcus aureus [9]) [µg/mL]	MIC (Staphylococcus aureus [10]) [µg/mL]	MIC (Staphylococcus aureus [11]) [µg/mL]	MIC (Staphylococcus aureus [12]) [µg/mL]	MIC (Staphylococcus aureus [13]) [µg/mL]	MIC [14] [µg/mL]	MIC [15] [µg/mL]	MIC [16] [µg/mL]	MIC [17] [µg/mL]	MIC [18] [µg/mL]	MIC [19] [µg/mL]	MIC [20] [µg/mL]	other results
CCCC[C@H](CN(O)C=O)C(=O)N1CC2(CC2)C[C@H]1c1nc(-c2cccnc2)no1	654	4.8	0.25	929	893	0.5 (≈ 1.21 µM)	0.5 (≈ 1.21 µM)	0.5 (≈ 1.21 µM)	0.5 (≈ 1.21 µM)	0.5 (≈ 1.21 µM)	0.5 (≈ 1.21 µM)	0.5 (≈ 1.21 µM)	0.5 (≈ 1.21 µM)	0.25 (≈ 0.605 µM)	0.25 (≈ 0.605 µM)	0.125 (≈ 0.302 µM)	0.5 (≈ 1.21 µM)	0.125 (≈ 0.302 µM)	0.5 (≈ 1.21 µM)	0.125 (≈ 0.302 µM)	MIC (Enterococcus faecalis [21]): 2 µg/mL (≈ 4.84 µM); MIC (Enterococcus faecalis [22]): 2 µg/mL (≈ 4.84 µM); MIC (Enterococcus faecalis [23]): 2 µg/mL (≈ 4.84 µM); MIC (Enterococcus faecalis [24]): 2 µg/mL (≈ 4.84 µM); MIC (Escherichia coli [25]): 64 µg/mL (≈ 155 µM); MIC (Escherichia coli [26]): 64 µg/mL (≈ 155 µM); MIC (Escherichia coli [27]): 1 µg/mL (≈ 2.42 µM); MIC (Escherichia coli [28]): 32 µg/mL (≈ 77.4 µM); AUC(0-t) [29]: 1280 ng·h/mL; AUC(0-inf) [30]: 657 ng·h/mL; AUC(0-inf) [31]: 1300 ng·h/mL; half-life [32]: 1.11 h; half-life [33]: 1.28 h; MRT last [34]: 0.61 h; MRT last [35]: 1.68 h; clearance [36]: 51.2 mL/min/kg; CL/F [37]: 136 mL/min/kg; Vd [38]: 1.9 L/kg; Vdss (Rattus norvegicus): 15.1 L/kg; bioavailability [39]: 40%
CCCC[C@H](CN(O)C=O)C(=O)N1CC2(CC2)C[C@H]1C(=O)Nc1ccc(F)c[n+]1[O-]	1260	8.4	0.25	1780	1850	0.25 (≈ 0.592 µM)	0.25 (≈ 0.592 µM)	0.125 (≈ 0.296 µM)	0.125 (≈ 0.296 µM)	0.125 (≈ 0.296 µM)	0.125 (≈ 0.296 µM)	0.125 (≈ 0.296 µM)	0.125 (≈ 0.296 µM)	0.03 (≈ 0.071 µM)	0.06 (≈ 0.142 µM)	0.03 (≈ 0.071 µM)	0.125 (≈ 0.296 µM)	0.03 (≈ 0.071 µM)	0.125 (≈ 0.296 µM)	0.03 (≈ 0.071 µM)	MIC (Enterococcus faecalis [21]): 0.25 µg/mL (≈ 0.592 µM); MIC (Enterococcus faecalis [22]): 0.5 µg/mL (≈ 1.18 µM); MIC (Enterococcus faecalis [23]): 0.5 µg/mL (≈ 1.18 µM); MIC (Enterococcus faecalis [24]): 128 µg/mL (≈ 303 µM); MIC (Escherichia coli [25]): 128 µg/mL (≈ 303 µM); MIC (Escherichia coli [26]): 64 µg/mL (≈ 151 µM); MIC (Escherichia coli [27]): 1 µg/mL (≈ 2.37 µM); MIC (Escherichia coli [28]): 64 µg/mL (≈ 151 µM); AUC(0-t) [29]: 1960 ng·h/mL; AUC(0-inf) [30]: 1280 ng·h/mL; AUC(0-inf) [31]: 1990 ng·h/mL; half-life [32]: 3.63 h; half-life [33]: 4.94 h; MRT last [34]: 1.65 h; MRT last [35]: 2.04 h; clearance [36]: 26.2 mL/min/kg; CL/F [37]: 91.3 mL/min/kg; Vd [38]: 2.6 L/kg; Vdss (Rattus norvegicus): 39.4 L/kg; bioavailability [39]: 31%
CCCC[C@H](CN(O)C=O)C(=O)N1CC2(CC2)C[C@H]1C(=O)Nc1cc(C(C)(C)C)on1	1140	4.8	0.58	930	860	0.06 (≈ 0.138 µM)	0.06 (≈ 0.138 µM)	< 0.008	0.06 (≈ 0.138 µM)	0.125 (≈ 0.288 µM)	0.125 (≈ 0.288 µM)	0.25 (≈ 0.575 µM)	0.06 (≈ 0.138 µM)	0.03 (≈ 0.069 µM)	0.03 (≈ 0.069 µM)	0.015 (≈ 0.0345 µM)	0.03 (≈ 0.069 µM)	0.03 (≈ 0.069 µM)	0.125 (≈ 0.288 µM)	0.015 (≈ 0.0345 µM)	MIC (Enterococcus faecalis [21]): 0.5 µg/mL (≈ 1.15 µM); MIC (Enterococcus faecalis [22]): 0.5 µg/mL (≈ 1.15 µM); MIC (Enterococcus faecalis [23]): 0.5 µg/mL (≈ 1.15 µM); MIC (Enterococcus faecalis [24]): > 128 µg/mL; MIC (Escherichia coli [25]): 64 µg/mL (≈ 147 µM); MIC (Escherichia coli [26]): 64 µg/mL (≈ 147 µM); MIC (Escherichia coli [27]): 1 µg/mL (≈ 2.3 µM); MIC (Escherichia coli [28]): 64 µg/mL (≈ 147 µM); AUC(0-t) [29]: 1950 ng·h/mL; AUC(0-inf) [30]: 1140 ng·h/mL; AUC(0-inf) [31]: 1980 ng·h/mL; half-life [32]: 1.23 h; half-life [33]: 4.52 h; MRT last [34]: 1.5 h; MRT last [35]: 3.43 h; clearance [36]: 29.6 mL/min/kg; CL/F [37]: 90.6 mL/min/kg; Vd [38]: 2.7 L/kg; Vdss (Rattus norvegicus): 36.2 L/kg; bioavailability [39]: 35%
